According to patent US10975081B2, “Substituted fused pyrazole compounds and their use as LRRK2 inhibitors” (GlaxoSmithKline Intellectual Property Development Limited, priority 2015, dated 2021):

Target: LRRK2 Ser935 phosphorylation in SH-SY5Y cells over-expressing recombinant full length LRRK2 (Homo sapiens (Human), UniProt Q5S007)
Test: Recombinant cellular LRRK2 AlphaScreen assay
Assay type: cell-based
Conditions: 60 minutes, read-out: Recombinant cellular LRRK2 alphaScreen assay (pIC50) (converted)
Excerpt: To determine the activity of compounds against LRRK2 kinase activity in cells, the observed LRRK2 kinase-dependent modulation of LRRK2 Ser 935 phosphorylation (Dzamko et al., 2010, Biochem. J. 430: 405-413) was utilized to develop a quantitative 384 well plate-based immunoassay of LRRK2 Ser935 phosphorylation in the human neuroblastoma cell line SH-SY5Y, engineered to over-express recombinant full length LRRK2 protein.
A BacMam virus expressing full length recombinant LRRK2 was purchased from Invitrogen and amplified by inoculation of SF-9 cells at MOI 0.3 for 4-5 days in Sf-900 III SFM medium supplemented with 3% fetal bovine serum. Infected cell cultures were then centrifuged at 2000 g for 20 minutes, viral supernatant titer determined by anti-gp64 plaque assay and stored at 4° C.
Affinity-purified anti-phospho LRRK2 Ser935 sheep polyclonal antibody (Dzamko et al., 2010, Biochem. J. 430: 405-413) was biotinylated by standard methods (PerkinElmer). Anti-LRRK2 rabbit polyclonal antibody was purchased from Novus Biologicals. AlphaScreen Protein A IgG Kit (including acceptor and donor beads) was purchased from Perkin Elmer.
SH-SY5Y cells were grown in DMEM/F12 medium with 10% dialysed fetal bovine serum and harvested by treatment with 0.5% trypsin-EDTA for 5 minutes at 37° C. followed by centrifugation at 1000 rpm for 4 minutes. The cell pellet was resuspended in Opti-MEM reduced serum media (Invitrogen) at 200,000 cells/ml and mixed with the BacMam LRRK2 virus at M01=50. 50 μl cell solutions were then dispensed to each well of a 384-well plate and incubated at 37° C., 5% CO2 for 24 hours.
Serial dilutions of test compounds were prepared in Opti-MEM reduced serum media (Invitrogen) and 5.6 ul transferred from compound plate to cell assay plate to achieve a top final assay concentration of 10 uM. DMSO was used in certain wells as controls. Cells were incubated at 37° C., 5% CO2 for 60 minutes. The medium was then removed and cells lysed by addition of 20 ul cell lysis buffer (Cell Signaling Technology) and incubation at 4° C. for 20 minutes. 10 ul of antibody/acceptor bead mix [( 1/1000 biotinylated-pS935 LRRK2 antibody, 1/1000 total-LRRK2 antibody, 1/100 Acceptor beads in AlphaScreen detection buffer (25 mM Hepes (pH 7.4), 0.5% Triton X-100, 1 mg/ml Dextran 500 and 0.1% BSA)] was then added to each well and plates incubated for 2 hours at ambient temperature in the dark. 10 μl of donor beads solution (1/33.3 donor beads in AlphaScreen detection buffer) was then added to each well. Following incubation for a further 2 hours at ambient temperature in the dark, plates were read on an EnVision™ plate reader at emission 520-620 nm with excitation 680 nm. Dose response curve data was based on sigmoidal dose-response model.

LRRK2 Ser935 phosphorylation in SH-SY5Y cells over-expressing recombinant full length LRRK2, sequence (Q5S007 whole entry): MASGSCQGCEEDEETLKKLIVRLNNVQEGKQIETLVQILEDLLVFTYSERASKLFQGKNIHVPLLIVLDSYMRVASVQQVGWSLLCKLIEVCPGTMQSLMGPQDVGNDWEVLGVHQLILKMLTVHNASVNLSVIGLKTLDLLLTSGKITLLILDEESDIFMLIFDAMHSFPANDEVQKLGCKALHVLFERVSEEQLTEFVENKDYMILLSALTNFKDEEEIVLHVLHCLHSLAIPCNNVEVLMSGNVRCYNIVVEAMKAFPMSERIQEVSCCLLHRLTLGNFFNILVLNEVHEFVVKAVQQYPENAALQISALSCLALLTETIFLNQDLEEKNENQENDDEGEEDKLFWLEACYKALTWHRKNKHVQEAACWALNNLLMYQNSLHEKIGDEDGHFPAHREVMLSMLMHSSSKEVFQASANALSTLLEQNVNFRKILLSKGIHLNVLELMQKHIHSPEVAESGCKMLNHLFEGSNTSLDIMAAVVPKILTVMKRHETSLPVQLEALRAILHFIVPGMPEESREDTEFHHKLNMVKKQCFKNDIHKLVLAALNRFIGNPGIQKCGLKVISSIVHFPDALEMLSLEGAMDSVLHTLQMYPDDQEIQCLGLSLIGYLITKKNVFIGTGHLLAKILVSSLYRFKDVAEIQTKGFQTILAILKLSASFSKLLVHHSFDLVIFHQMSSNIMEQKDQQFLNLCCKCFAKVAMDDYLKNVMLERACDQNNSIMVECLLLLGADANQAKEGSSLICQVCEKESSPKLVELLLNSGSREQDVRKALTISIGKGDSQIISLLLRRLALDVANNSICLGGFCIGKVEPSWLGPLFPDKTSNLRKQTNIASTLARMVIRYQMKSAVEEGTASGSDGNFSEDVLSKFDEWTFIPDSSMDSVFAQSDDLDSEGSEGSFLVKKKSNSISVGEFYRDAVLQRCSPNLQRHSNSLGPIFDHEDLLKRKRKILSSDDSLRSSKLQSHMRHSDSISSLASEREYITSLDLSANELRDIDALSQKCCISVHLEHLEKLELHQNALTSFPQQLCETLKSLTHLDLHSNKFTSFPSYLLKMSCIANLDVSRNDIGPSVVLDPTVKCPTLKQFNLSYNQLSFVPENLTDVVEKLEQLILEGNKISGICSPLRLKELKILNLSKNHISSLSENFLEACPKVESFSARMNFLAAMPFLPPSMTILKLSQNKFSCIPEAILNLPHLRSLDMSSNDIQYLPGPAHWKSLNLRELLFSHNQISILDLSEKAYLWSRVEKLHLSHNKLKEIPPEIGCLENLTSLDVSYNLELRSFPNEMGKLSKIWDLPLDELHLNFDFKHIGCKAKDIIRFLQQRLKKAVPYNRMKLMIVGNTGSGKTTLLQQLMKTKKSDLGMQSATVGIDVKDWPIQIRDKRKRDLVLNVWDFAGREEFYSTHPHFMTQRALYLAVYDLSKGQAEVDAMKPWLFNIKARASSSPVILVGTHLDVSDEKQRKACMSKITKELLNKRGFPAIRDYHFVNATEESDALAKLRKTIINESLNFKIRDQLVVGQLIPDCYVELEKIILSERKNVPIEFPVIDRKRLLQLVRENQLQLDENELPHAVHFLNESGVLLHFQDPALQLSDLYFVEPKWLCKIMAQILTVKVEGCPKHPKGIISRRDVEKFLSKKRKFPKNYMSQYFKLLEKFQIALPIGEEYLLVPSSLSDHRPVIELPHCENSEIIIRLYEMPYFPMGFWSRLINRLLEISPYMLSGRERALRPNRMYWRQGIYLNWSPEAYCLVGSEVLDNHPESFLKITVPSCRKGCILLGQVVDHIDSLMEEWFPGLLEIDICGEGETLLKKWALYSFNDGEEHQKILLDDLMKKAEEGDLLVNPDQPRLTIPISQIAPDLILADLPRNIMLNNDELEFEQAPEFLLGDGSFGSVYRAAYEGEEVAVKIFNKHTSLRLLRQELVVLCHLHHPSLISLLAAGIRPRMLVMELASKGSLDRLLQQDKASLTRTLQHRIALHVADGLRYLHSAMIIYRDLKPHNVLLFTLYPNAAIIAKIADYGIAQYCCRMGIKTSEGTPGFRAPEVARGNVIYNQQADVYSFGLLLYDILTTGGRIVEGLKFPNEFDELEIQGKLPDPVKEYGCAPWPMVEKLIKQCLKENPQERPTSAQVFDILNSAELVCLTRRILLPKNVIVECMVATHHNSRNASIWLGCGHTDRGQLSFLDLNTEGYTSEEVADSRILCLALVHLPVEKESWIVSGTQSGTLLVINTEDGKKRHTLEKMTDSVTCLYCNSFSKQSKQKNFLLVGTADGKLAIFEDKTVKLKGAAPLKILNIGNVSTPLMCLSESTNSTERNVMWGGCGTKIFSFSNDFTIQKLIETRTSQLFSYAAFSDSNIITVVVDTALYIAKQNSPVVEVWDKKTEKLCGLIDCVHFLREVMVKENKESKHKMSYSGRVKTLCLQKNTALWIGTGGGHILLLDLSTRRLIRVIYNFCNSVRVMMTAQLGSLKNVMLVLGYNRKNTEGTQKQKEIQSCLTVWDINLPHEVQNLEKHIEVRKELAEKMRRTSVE

IC50 [µM]	Compound
> 10	CCc1nc(N2CCOCC2)cc(-n2ncc3cc(C)c(C4CCN(C)CC4(F)F)cc32)n1 (single isomer, unassigned) [Example E11, 4-(6-(6-(3,3-Difluoro-1-methylpiperidin-4-yl)-5-methyl-1H-indazol-1-yl)-2-ethylpyrimidin-4-yl)morpholine]
≤ 0.1	CCOc1nc(N2CCOCC2)cc(-n2ncc3cc(C)c(C4CCN(C5COC5)CC4(F)F)cc32)n1 (single isomer, unassigned) [Example E24, 4-(6-(6-(3,3-Difluoro-1-(oxetan-3-yl)piperidin-4-yl)-5-methyl-1H-indazol-1-yl)-2-ethoxypyrimidin-4-yl)morpholine]
≤ 0.1	CNC(=O)[C@@H]1CN(c2cc(-n3ncc4cc(C)c(C5CCN(CCOC)CC5F)cc43)ncn2)CCO1 (single isomer, unassigned) [Example E30]
≤ 0.1	Cc1cc2cnn(-c3cc(N4CC(O)C4)nc(C4CC4)n3)c2cc1[C@H]1CCN(C)C[C@H]1F (single isomer, unassigned) [Example E46, (cis)-1-(2-Cyclopropyl-6-(6-(3-fluoro-1-methylpiperidin-4-yl)-5-methyl-1H-indazol-1-yl)pyrimidin-4-yl)azetidin-3-ol]
> 10	COc1nc(N2CC(O)C2)cc(-n2ncc3cc(C)c([C@@H]4CN(C)C[C@@H]4F)cc32)n1 (single isomer, unassigned) [Example E74, (cis)-1-(6-(6-(4-Fluoro-1-methylpyrrolidin-3-yl)-5-methyl-1H-indazol-1-yl)-2-methoxypyrimidin-4-yl)azetidin-3-ol]
> 10	COCCN1CCC(c2ncc3cnn(-c4ccnc(N5CCOCC5)c4)c3n2)C(F)C1 (single isomer, unassigned) [Example E76, (cis)-4-(4-(6-(3-Fluoro-1-(2-methoxyethyl)piperidin-4-yl)-1H-pyrazolo[3,4-d]pyrimidin-1-yl)pyridin-2-yl)morpholine]
≤ 0.1	Cc1nc(N2CC(OCCO)C2)cc(-n2ncc3cc(C)c([C@H]4CCN(C)C[C@H]4F)cc32)n1 (single isomer, unassigned) [Example E132, (cis)-2-((1-(6-(6-(3-Fluoro-1-methylpiperidin-4-yl)-5-methyl-1H-indazol-1-yl)-2-methylpyrimidin-4-yl)azetidin-3-yl)oxy)ethanol]
≤ 0.1	CCN1CC[C@H](c2cc3c(cnn3-c3cc(N4CC(O)C4)nc(C)n3)cc2C)[C@H](F)C1 (single isomer, unassigned) [Example E146, (cis)-1-(6-(6-(1-Ethyl-3-fluoropiperidin-4-yl)-5-methyl-1H-indazol-1-yl)-2-methylpyrimidin-4-yl)azetidin-3-ol]
≤ 0.1	COc1nc(N2CC(O)C(F)C2)cc(-n2ncc3cc(C)c(C4CCN(C5COC5)CC4)cc32)n1 (single isomer, unassigned) [Example E219, (trans)-4-Fluoro-1-(2-methoxy-6-(5-methyl-6-(1-(oxetan-3-yl)piperidin-4-yl)-1H-indazol-1-yl)pyrimidin-4-yl)pyrrolidin-3-ol]
> 10	COc1nc(N2CC(O)C2)cc(-n2ncc3cc(C)c(C4(F)CCCN(C)C4)cc32)n1 (single isomer, unassigned) [Example E221, 1-(6-(6-(3-Fluoro-1-methylpiperidin-3-yl)-5-methyl-1H-indazol-1-yl)-2-methoxypyrimidin-4-yl)azetidin-3-ol]
> 10	Cc1nc(N2CC(O)C2)cc(-n2ncc3cc(C)c(C4CN(C)CCO4)cc32)n1 (single isomer, unassigned) [Example E228, 1-(2-M ethyl-6-(5-methyl-6-(4-methylmorpholin-2-yl)-1H-indazol-1-yl)pyrimidin-4-yl)azetidin-3-ol]
≤ 0.1	Cc1nc(N2CCO[C@@H](CO)C2)cc(-n2ncc3cc(C)c(C4CCOCC4F)cc32)n1 (single isomer, unassigned) [Example E250]
> 10	Cc1nc(N2CCO[C@H](CO)C2)cc(-n2ncc3cc(C)c(C4CCCCO4)cc32)n1 (single isomer, unassigned) [Example E271]
> 10	Cc1nc(N2CC(O)C2)cc(-n2ncc3cc(C)c(C4CCCOC4)cc32)n1 (single isomer, unassigned) [Example E272, 1-(2-Methyl-6-(5-methyl-6-(tetrahydro-2H-pyran-3-yl)-1H-indazol-1-yl)pyrimidin-4-yl)azetidin-3-ol]

The remaining lines, values behind:

Compound	IC50 [µM]
Cc1cc2cnn(-c3cc(N4CCOCC4)nc(OC(C)C)n3)c2cc1C1CCN(C)CC1(F)F (single isomer, unassigned) [Example E7, 4-(6-(6-(3,3-Difluoro-1-methylpiperidin-4-yl)-5-methyl-1H-indazol-1-yl)-2-isopropoxypyrimidin-4-yl)morpholine]	> 10
Cc1cc2cnn(-c3cc(N4CCOCC4)nc(C#N)n3)c2cc1C1CCN(C)CC1(F)F (single isomer, unassigned) [Example E9, 4-(6-(3,3-Difluoro-1-methylpiperidin-4-yl)-5-methyl-1H-indazol-1-yl)-6-morpholinopyrimidine-2-carbonitrile]	> 10
Cc1cc2cnn(-c3cc(N4CCOCC4)nc(OC(C)C)n3)c2cc1C1CCN(C2COC2)CC1(F)F (single isomer, unassigned) [Example E25, 4-(6-(6-(3,3-Difluoro-1-(oxetan-3-yl)piperidin-4-yl)-5-methyl-1H-indazol-1-yl)-2-isopropoxypyrimidin-4-yl)morpholine]	> 10
CNC(=O)[C@H]1CN(c2cc(-n3ncc4cc(C)c(C5CCN(CCOC)CC5F)cc43)ncn2)CCO1 (single isomer, unassigned) [Example E29]	≤ 0.1
CNC(=O)[C@@H]1CN(c2cc(-n3ncc4cc(C)c(C5CCN(C6COC6)CC5F)cc43)ncn2)CCO1 (single isomer, unassigned) [Example E34]	≤ 0.1
CNC(=O)[C@H]1CN(c2cc(-n3ncc4cc(C)c(C5CCN(C6COC6)CC5F)cc43)ncn2)CCO1 (single isomer, unassigned) [Example E35]	≤ 0.1
Cc1nc(-n2ncc3cc(C)c(C4CCN(C5COC5)CC4F)cc32)cc([C@H]2C[C@@H](O)C2)n1 (single isomer, unassigned) [Example E44, (cis)-(1s,3s)-3-(6-(6-(3-Fluoro-1-(oxetan-3-yl)piperidin-4-yl)-5-methyl-1H-indazol-1-yl)-2-methylpyrimidin-4-yl)cyclobutanol]	≤ 0.1
COc1nc(N2CC(O)C2)cc(-n2ncc3cc(C)c(C4CCN(C)C(=O)C4)cc32)n1 (single isomer, unassigned) [Example E87, 4-(1-(6-(3-Hydroxyazetidin-1-yl)-2-methoxypyrimidin-4-yl)-5-methyl-1H-indazol-6-yl)-1-methylpiperidin-2-one]	> 10
Cc1nc(N2CC[C@H](O)C2)cc(-n2ncc3cc(C)c(C4CCN(C)CC4F)cc32)n1 (single isomer, unassigned) [Example E128]	≤ 0.1
COc1nc(N2CC(O)C2)cc(-n2ncc3cc(C)c(C4CN(C)CCO4)cc32)n1 (single isomer, unassigned) [Example E229, 1-(2-Methoxy-6-(5-methyl-6-(4-methylmorpholin-2-yl)-1H-indazol-1-yl)pyrimidin-4-yl)azetidin-3-ol]	> 10
Cc1nc(N2CCO[C@@H](CO)C2)cc(-n2ncc3cc(C)c(C4CCCOC4)cc32)n1 (single isomer, unassigned) [Example E240]	> 10
Cc1nc(N2CCO[C@@H](CO)C2)cc(-n2ncc3cc(C)c(C4CCCCO4)cc32)n1 (single isomer, unassigned) [Example E245]	> 10
Cc1nc(N2CC(O)C2)cc(-n2ncc3cc(C)c(C4CCOCC4F)cc32)n1 (single isomer, unassigned) [Example E246, 1-(6-(6-(3-Fluorotetrahydro-2H-pyran-4-yl)-5-methyl-1H-indazol-1-yl)-2-methylpyrimidin-4-yl)azetidin-3-ol]	≤ 0.1
Cc1nc(N2CCOC(C(C)O)C2)cc(-n2ncc3cc(C)c(C4CCN(C5COC5)CC4)cc32)n1 (single isomer, unassigned) [Example E268, 1-(4-(2-Methyl-6-(5-methyl-6-(1-(oxetan-3-yl)piperidin-4-yl)-1H-indazol-1-yl)pyrimidin-4-yl)morpholin-2-yl)ethanol]	≤ 0.1
